In patent US9518038B2, “Condensation product of theanine derivative and carboxylic acid coumarin derivative, its intermediate, preparation method and use thereof” (SHANDONG YINGDONG YINGHAO BIOTECHNOLOGY, INC., priority 2012, dated 2016):
Like-named read-outs stand apart in the source and are kept apart here.

Tests used:
[1] = tested on: human prostate cancer cells PC-3; test: MTT growth inhibition, PC-3 cells; format: cell-based; settings: 72 h after treatment, read-out: Drug concentration (IC50) at which 50% cancer cells survived
Text: (§1) Cell lines and cell culture: human lung cancer cells A549 and H460, human breast cancer cells MCF-7 and MDA-MB-231, human gastric cancer cells BGC-823, human prostate cancer cells PC-3, human chronic leukemia cells K562, human lymphoma cells U937, human liver cancer cells SMMC7721 and HepG2, human colon cancer cells HT29, human pancreatic cancer cells PANC-1 and BxPC3, human cervical cancer Hela cell lines, human brain tumor cells Daoy, human neuroma cells D54 and human oral epidermoid cancer cells KBV200 line with strong drug resistance, mouse melanoma cells B16, and highly metastatic Lewis lung cancer cell lines were purchased from American Type Culture Collection of the U.S. These cells were cultured with DMEM and RPMI-1640 culture solutions separately.
(§2) The procedure was as follows:
(§3) (1) 0.25% trypsin was used to digest cancer cells in a logarithmic growth phase to prepare a single-cell suspension, the concentration of cells was adjusted to 5×10^4/mL, and the adjusted suspension was inoculated into a 96-well culture plate with 100 μl per well;
(§4) (2) The culture plate was transferred into a 37° C. incubator with a saturated humidity and 5% of CO2 and cultured for 24 h; the compounds and the intermediates thereof obtained in embodiments 1-7 and the compound as represented by formula (IIIa) or the positive control anti-cancer drug with the concentration of 1-1000 μM/L were added to enable the final concentration to be 0.1-1500 μM/L. Control wells (only added with 200 μl of cell suspension) and drug-free blank control wells (containing the solvent of 0.01% DMSO) were set, each group included 8 wells, and the plate was placed into the 37° C. incubator with saturated humidity and 5% of CO2 for culturing;
(§5) (3) The 96-well plate was taken out at 48 h and 72 h after dosing, the original culture medium was carefully removed by suction, 100 μl of serum-free DMEM culture medium and 10 μl of MTT (5 mg/mL) solution were added in each well. The plate was continuously cultured for another 4 h and then the culture was terminated;
(§6) (4) The supernatant in the wells was carefully removed by suction, each well was added with 150 μl of DMSO and shaked at room temperature for 10-15 min to fully dissolve crystals.
(§7) (5) Colorimetric analysis: the wavelength was selected as 570 nm, the light absorbance (A value) of each well was determined on the microplate reader and the results were recorded; the experiment was repeated for three times;
(§8) (6) the experimental results were calculated according to the following formula: relative survival rate=(A value of each experimental group/A value of cell control group)×100%
(§9) Calculation of median-effect concentration (IC50, namely the drug concentration at which the inhibition rate is 50%, also known as half inhibitory concentration):
(§10) IC50 of the detected component was calculated by using a regression equation.

[2] = tested on: human pancreatic cancer cells BxPC3; test: MTT growth inhibition, BxPc3 cells; format: cell-based; settings: read-out: Drug concentration (IC50) at which 50% cancer cells survived
Text: as §1, §2, §3, §4, §5, §6, §7, §8, §9, §10

[3] = tested on: human chronic leukemia cells K562; test: MTT growth inhibition, K562 cells; format: cell-based; settings: 72 h after treatment, read-out: Drug concentration (IC50) at which 50% cancer cells survived
Text: as §1, §2, §3, §4, §5, §6, §7, §8, §9, §10

[4] = tested on: human cervical cancer Hela cell lines; test: MTT growth inhibition, Hela cells; format: cell-based; settings: Homo sapiens, 72 h after treatment, read-out: Drug concentration (IC50) at which 50% cancer cells survived
Text: as §1, §2, §3, §4, §5, §6, §7, §8, §9, §10

[5] = tested on: highly metastatic Lewis lung cancer cell lines; test: MTT growth inhibition, LLC cells; format: cell-based, mouse; settings: 72 h after treatment, read-out: Drug concentration (IC50) at which 50% cancer cells survived
Text: as §1, §2, §3, §4, §5, §6, §7, §8, §9, §10

[6] = tested on: human lymphoma cells U937; test: MTT growth inhibition, U937 cells; format: cell-based; settings: Homo sapiens, U-937, 72 h after treatment, read-out: Drug concentration (IC50) at which 50% cancer cells survived
Procedure: as §2, §5, §6, §7, §8, §10

[7] = tested on: human liver cancer cells HepG2; test: MTT growth inhibition, HepG2 cells; format: cell-based; settings: 72 h after treatment, read-out: Drug concentration (IC50) at which 50% cancer cells survived
Text: as §1, §2, §3, §4, §5, §6, §7, §8, §9, §10

[8] = tested on: mouse melanoma cells B16; test: MTT growth inhibition, B16 cells; format: cell-based; settings: Mus musculus, 72 h after treatment, read-out: Drug concentration (IC50) at which 50% cancer cells survived
Text: as §1, §2, §3, §4, §5, §6, §7, §8, §9, §10

[9] = tested on: human pancreatic cancer cells PANC-1; test: MTT growth inhibition, PANC-1 cells; format: cell-based; settings: 72 h after treatment, read-out: Drug concentration (IC50) at which 50% cancer cells survived
Text: as §1, §2, §3, §4, §5, §6, §7, §8, §9, §10

[10] = tested on: human brain tumor cells Daoy; test: MTT growth inhibition, Daoy cells; format: cell-based; settings: Homo sapiens, 72 h after treatment, read-out: Drug concentration (IC50) at which 50% cancer cells survived
Text: as §1, §2, §3, §4, §5, §6, §7, §8, §9, §10

[11] = tested on: human liver cancer cells SMMC7721; test: MTT growth inhibition, SMMC7721 cells; format: cell-based; settings: SMMC-7721, S-7721 (SMMC7721), 72 h after treatment, read-out: Drug concentration (IC50) at which 50% cancer cells survived
Text: as §1, §2, §3, §4, §5, §6, §7, §8, §9, §10

[12] = tested on: human neuroma cells D54; test: MTT growth inhibition, D54 cells; format: cell-based; settings: Homo sapiens, 72 h after treatment, read-out: Drug concentration (IC50) at which 50% cancer cells survived
Text: as §1, §2, §3, §4, §5, §6, §7, §8, §9, §10

[13] = tested on: human oral epidermoid cancer cells KBV200; test: MTT growth inhibition, KBV200 cells; format: cell-based; settings: 72 h after treatment, read-out: Drug concentration (IC50) at which 50% cancer cells survived
Text: as §1, §2, §3, §4, §5, §6, §7, §8, §9, §10

[14] = tested on: human breast cancer cells MCF-7; test: MTT growth inhibition, MCF-7 cells; format: cell-based; settings: MCF7, 72 h after treatment, read-out: Drug concentration (IC50) at which 50% cancer cells survived
Text: as §1, §2, §3, §4, §5, §6, §7, §8, §9, §10

[15] = tested on: human colon cancer cells HT29; test: MTT growth inhibition, HT29 cells; format: cell-based; settings: HT-29, 72 h after treatment, read-out: Drug concentration (IC50) at which 50% cancer cells survived
Text: as §1, §2, §3, §4, §5, §6, §7, §8, §9, §10

[16] = tested on: Caski human cervical cancer cells; test: MTT growth inhibition, Caski cells; format: cell-based; settings: Ca-Ski, 72 h after treatment, read-out: Drug concentration (IC50) at which 50% cancer cells survived
[17] = tested on: human lung cancer cells A549; test: MTT growth inhibition, A549 cells; format: cell-based; settings: 72 h after treatment, read-out: Drug concentration (IC50) at which 50% cancer cells survived
Text: as §1, §2, §3, §4, §5, §6, §7, §8, §9, §10

[18] = tested on: human lung cancer cells H460; test: MTT growth inhibition, H460 cells; format: cell-based; settings: NCI-H460, 72 h after treatment, read-out: Drug concentration (IC50) at which 50% cancer cells survived
Text: as §1, §2, §3, §4, §5, §6, §7, §8, §9, §10

[19] = tested on: human breast cancer cells MDA-MB-231; test: MTT growth inhibition, MDA-MB-231 cells; format: cell-based; settings: 72 h after treatment, read-out: Drug concentration (IC50) at which 50% cancer cells survived
Text: as §1, §2, §3, §4, §5, §6, §7, §8, §9, §10

[20] = tested on: human gastric cancer cells BGC-823; test: MTT growth inhibition, BGC-823 cells; format: cell-based; settings: 72 h after treatment, read-out: Drug concentration (IC50) at which 50% cancer cells survived
Text: as §1, §2, §3, §4, §5, §6, §7, §8, §9, §10

[21] = Homo sapiens, BXPC-3, 72 h after treatment
[22] = Mus musculus, Lewis lung carcinoma

Compound | IC50 [1] [µM] | IC50 [2, 21] [µM] | IC50 [3] [µM] | IC50 [4] [µM] | IC50 [5, 22] [µM] | IC50 [6] [µM] | IC50 [7] [µM] | IC50 [8] [µM] | IC50 [9] [µM] | IC50 [10] [µM] | IC50 [11] [µM] | IC50 [12] [µM] | IC50 [13] [µM] | IC50 [14] [µM] | IC50 [15] [µM] | IC50 [16] [µM] | IC50 [17] [µM] | IC50 [18] [µM] | IC50 [19] [µM] | IC50 [20] [µM] | other results
O=C(O)c1cc2cc([N+](=O)[O-])ccc2oc1=O [Compound IIIf, 6-nitrocoumarin-3-carboxylic acid] | 530 | 114 | 300 | 580 | 370 | 450 | 360 | 670 | 430 | 400 | 460 | 300 | 300 | 400 | 460 | 300 | 580 | 460 | 470 | 650 | –
O=C(O)c1cc2cc(Cl)cc(Cl)c2oc1=O [Compound IIIg, 6,8-dichloro-coumarin-3-carboxylic acid] | 310 | 300 | 420 | 260 | 250 | 350 | 420 | 500 | 430 | 350 | 490 | 300 | 300 | 410 | 480 | 250 | 330 | 400 | 460 | 380 | –
COc1cccc2c1C(=O)c1c(O)c3c(c(O)c1C2=O)C[C@@](O)(C(C)=O)C[C@@H]3O[C@H]1C[C@H](N)[C@H](O)[C@H](C)O1 [Daunorubicin, reference compound] | 51 | – | – | – | – | – | – | – | 55 | – | – | – | 1 | 58 | 63 | – | – | 63 | – | 68 | –
COc1cc([C@@H]2c3cc4c(cc3[C@@H](O[C@@H]3O[C@@H]5CO[C@@H](C)O[C@H]5[C@H](O)[C@H]3O)[C@H]3COC(=O)[C@H]23)OCO4)cc(OC)c1O [Etoposide, reference compound] | – | – | 85 | – | – | – | – | – | – | – | – | – | – | – | – | 89 | – | – | – | – | –
O=c1c(-c2ccc(O)cc2)coc2cc(O)cc(O)c12 [Genistein, reference compound] | – | – | – | – | – | – | – | – | – | – | – | – | – | – | – | – | – | – | – | 135 | –
O=C1OC(=O)[C@H]2[C@@H]1[C@@H]1CC[C@H]2O1 [Norcantharidin, reference compound] | – | – | – | – | – | – | – | – | – | – | – | – | – | – | – | – | – | – | – | – | IC50 ([2]; 72 h after treatment): 60 µM; IC50 [5]: 15 µM
